Measurements: US20240391954A1, “MC4R AGONIST PEPTIDES” (The Regents of the University of Michigan, priority 2021, published 2024)
pEC50: −log10 of the molar value. Positions of bridges follow the written chain, without caps; N, C: chain ends. Non-standard residues stand in square brackets, D forms with d. Residues, ends and D or L forms follow the SMILES beside them. 2Pal = N[C@@H](Cc1ccccn1)C(=O)O; 4Pal = N[C@@H](Cc1ccncc1)C(=O)O; Cit = NC(=O)NCCC[C@H](N)C(=O)O; Aib = CC(C)(N)C(=O)O

Key:
Format in all cases: cell-based
human MC3R = target: T1, human MC3R (Homo sapiens, UniProt P41968); assay: split-luciferase cAMP sensor assay, agonist mode (measurement window 1), hMC3R; settings: for Emax: % maximal activation, read-out: MC3R cAMP % max activation; for Emax / pEC50: agonist mode; for MC4R selectivity vs MC3R: MC4R versus MC3R; for pEC50: HEK-293 cells stably expressing hMC3R, read-out: MC3R cAMP EC50
T1 construct: expressed in transfected cells; host or cells: HEK-293 cells stably expressing the GScAMP22F split-luciferase cAMP sensor (parent reporter line from Promega); MC3R clone generated in-house, G418 selection
T1 sequence (P41968 whole entry): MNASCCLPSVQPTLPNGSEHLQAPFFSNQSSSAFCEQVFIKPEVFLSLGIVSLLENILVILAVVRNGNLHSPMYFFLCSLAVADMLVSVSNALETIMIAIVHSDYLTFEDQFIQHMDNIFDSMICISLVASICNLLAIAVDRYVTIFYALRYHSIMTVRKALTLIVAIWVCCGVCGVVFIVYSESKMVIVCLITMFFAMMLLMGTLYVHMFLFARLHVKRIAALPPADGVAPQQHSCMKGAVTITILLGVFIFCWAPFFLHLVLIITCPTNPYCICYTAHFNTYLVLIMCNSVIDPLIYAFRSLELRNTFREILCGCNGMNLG
How it was run: (§1)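 Live stable cell lines carrying receptor plus GloSensor cAMP22f split-luciferase, loaded with 4% D-luciferin in serum-free medium (~1% serum estimated during assay). Luminescence recorded during in-line peptide addition; direct agonist effect read in window 1, with 20 μM forskolin as normalization reference. EC50 from four-parameter sigmoid fit.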

human MC4R = target: T2, human MC4R (Homo sapiens, UniProt P32245); assay: split-luciferase cAMP sensor assay, agonist mode (measurement window 1), hMC4R; settings: agonist mode; for Emax: % maximal activation, read-out: MC4R cAMP % max activation; for pEC50: HEK-293 cells stably expressing hMC4R, read-out: MC4R cAMP EC50
T2 construct: host or cells: HEK-293 cells stably expressing the GScAMP22F split-luciferase cAMP sensor and hMC4R, G418 selection
T2 sequence (P32245 whole entry): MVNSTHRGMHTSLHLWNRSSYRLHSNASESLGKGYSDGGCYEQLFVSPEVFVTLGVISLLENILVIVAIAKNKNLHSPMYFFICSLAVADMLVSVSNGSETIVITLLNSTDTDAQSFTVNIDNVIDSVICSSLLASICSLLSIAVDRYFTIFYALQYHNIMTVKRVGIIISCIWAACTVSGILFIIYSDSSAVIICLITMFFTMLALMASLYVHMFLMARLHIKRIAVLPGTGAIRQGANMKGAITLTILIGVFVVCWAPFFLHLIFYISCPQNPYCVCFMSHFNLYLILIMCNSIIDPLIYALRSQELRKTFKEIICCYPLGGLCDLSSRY
How it was run: as §1

human MC1R = target: T3, human MC1R (Homo sapiens, UniProt Q01726); assay: split-luciferase cAMP sensor assay, agonist mode, hMC1R; settings: MC4R versus MC1R
T3 construct: expressed in transfected cells; host or cells: HEK-293 cells stably expressing hMC1R and the GScAMP22F cAMP sensor
T3 sequence (Q01726 whole entry): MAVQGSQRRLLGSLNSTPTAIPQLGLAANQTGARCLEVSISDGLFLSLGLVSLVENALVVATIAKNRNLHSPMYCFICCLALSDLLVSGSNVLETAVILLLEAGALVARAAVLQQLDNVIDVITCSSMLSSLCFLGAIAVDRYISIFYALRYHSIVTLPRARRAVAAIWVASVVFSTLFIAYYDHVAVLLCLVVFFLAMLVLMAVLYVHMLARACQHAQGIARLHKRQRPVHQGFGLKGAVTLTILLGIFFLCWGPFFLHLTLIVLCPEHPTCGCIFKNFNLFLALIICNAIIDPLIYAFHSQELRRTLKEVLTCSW
Experimental: FIG. 4A-B. (A) Pharmacological properties of exemplary MC4R agonist peptides, including those with improved efficacy in the MC4R+/− mouse (CTX-1211, CTX-1227, and CTX-1228). Concentration-response agonist curves for peptides indicated at the human MC4R (red), human MC3R (blue), human MC5R (green), and human MC1R (black) were determined by a split-luciferase cAMP sensor dynamic assay in HEK-293 cells stably expressing the hMC1R, hMC3R, hMC4R, or hMC5R and the GScAMP22F cAMP sensor. Each data point represents the mean±SEM of two experiments with three replicates each per experiment. Data is normalized to the ECmax of α-MSH. (B) Same as above, for peptides representing reduced activity at the hMC1R. Inset tables indicate EC50 values for the ligand indicated for each receptor.
The assay for the determination of the cAMP response in live cells was described previously. (Yu et al., 2020, Science 368, 428-433; incorporated by reference in its entirety). Cells were seeded at a density of 20,000 cells per well using 384-well poly-D lysine-coated, clear bottom, and black-wall assay plates (Corning Inc. Corning, NJ). Cells were allowed to attach to the plates for 18 to 24 h after which growth media was removed and 20 μl of 4% D-luciferin (Promega) in CO2 independent, serum-free medium (Thermo Fisher Scientific) was added to each well. The luciferase substrate was allowed to permeate the cells for 120 min at 37° C. Intracellular cAMP levels were measured using an FDSS 7000EX Functional Drug Screening System (Hamamatsu Photonics, Hamamatsu, Japan) in the Center for Chemical Genomics at the Life Sciences Institute. This instrument allowed the in-line addition of test-peptides and receptor agonists while simultaneously acquiring the luminescence signal from live cells. Assay read steps were set as follows: baseline acquisition of 2 min, the addition of 10 μl of varying 3× concentrations of test-peptides or vehicle followed by 11 min measurement (measurement window 1), and 10 μl addition of 4× concentration of the endogenous melanocortin agonist α-MSH (Bachem, Bubendorf, Switzerland) followed by an additional 11 min response measurement (measurement window 2). The resulting final concentration of α-MSH was close to the respective receptor EC90 dose for each receptor. Intraplate concentration response curves for α-MSH and SHU-9119 (Phoenix Pharmaceuticals, Burlingame CA) were included as reference controls. A submaximal forskolin (20 μM) concentration was also included to serve as a normalization reference to account for cell number variations and differences in assay transducer efficiency between cell lines.
With this set up it was possible to evaluate the direct effect of the test-peptides on the MC3R and MC4R cell lines during measurement window 1, while the antagonist profile in the presence of EC90 α-MSH was determined on measurement window 2. For data analysis baseline luminescence (i.e. the maximum luminescence signal from the initial 0 to 2 min window) was subtracted from the maximum luminescence obtained during measurement window 1 (2 to 13 min) and measurement window 2 (13 to 24 min) to yield the test-peptide elicited responses. EC50 or IC50 potency values were determined by non-linear regression by fitting the data to a sigmoid four-parameter variable slope model using the GraphPad Prism version 8.4 software package (San Diego CA).

SMILES	Emax (human MC3R)	MC4R selectivity vs MC3R (human MC3R)	Emax (human MC4R)	pEC50 (human MC4R)	MC4R selectivity vs MC1R (human MC1R)	pEC50 (human MC3R)
CC(=O)N[C@H]1CSSC[C@@H](C(N)=O)NC(=O)[C@H](Cc2c[nH]c3ccccc23)NC(=O)[C@H](CCCNC(=N)N)NC(=O)[C@@H](Cc2ccccc2)NC(=O)[C@H](CCCNC(N)=O)NC(=O)[C@@H](C)NC1=O [CTX-1628, cyclo(Cys-D-Ala-Cit-D-Phe-Arg-Trp-Cys)] (Ac-C[dA][Cit][dF]RWC-NH2; disulfide 1-7 (inferred))	45%	6.37	99%	7.85	191	
CC(=O)N[C@@H](CCCNC(=N)N)C(=O)N[C@H]1CSSC[C@@H](C(N)=O)NC(=O)[C@H](Cc2ccccc2)NC(=O)[C@H](CCCNC(=N)N)NC(=O)[C@@H](Cc2ccccc2)NC(=O)[C@H](Cc2ccncc2)NC(=O)C(C)(C)NC1=O [CTX-1606, Arg-cyclo(Cys-Aib-Pal(4′)-D-Phe-Arg-Phe-Cys)] (Ac-RC[Aib][4Pal][dF]RFC-NH2; disulfide 2-8 (inferred))	7.69%	0.62	92%		2.99	
CC(=O)N[C@H]1CSSC[C@@H](C(N)=O)NC(=O)[C@H](Cc2c[nH]c3ccccc23)NC(=O)[C@H](CCCNC(=N)N)NC(=O)[C@@H](Cc2ccccc2)NC(=O)[C@H](CCCNC(N)=O)NC(=O)C(C)(C)NC1=O [CTX-1633, cyclo(Cys-Aib-Cit-D-Phe-Arg-Trp-Cys)] (Ac-C[Aib][Cit][dF]RWC-NH2; disulfide 1-7 (inferred))	45%	104	110%		942	
CC(=O)N[C@@H](CCCNC(=N)N)C(=O)N[C@H]1CSSC[C@@H](C(N)=O)NC(=O)[C@H](Cc2ccccc2)NC(=O)[C@H](CCCNC(=N)N)NC(=O)[C@@H](Cc2ccccc2)NC(=O)[C@H](Cc2ccccn2)NC(=O)C(C)(C)NC1=O [CTX-1604, Arg-cyclo(Cys-Aib-Pal(2′)-D-Phe-Arg-Phe-Cys)] (Ac-RC[Aib][2Pal][dF]RFC-NH2; disulfide 2-8 (inferred))	12%	0.11	96%		3.66	
CC(=O)N[C@@H](CCCNC(=N)N)C(=O)N[C@H]1CSSC[C@@H](C(N)=O)NC(=O)[C@H](Cc2c[nH]c3ccccc23)NC(=O)[C@H](CCCNC(=N)N)NC(=O)[C@@H](Cc2ccccc2)NC(=O)[C@H](CCCNC(N)=O)NC(=O)[C@H](C)NC1=O [CTX-1287, Arg-cyclo(Cys-Ala-Cit-D-Phe-Arg-Trp-Cys)] (Ac-RCA[Cit][dF]RWC-NH2; disulfide 2-8 (inferred))	43%	66	94%		281	
N=C(N)NCCC[C@@H]1NC(=O)[C@@H](Cc2ccccc2)NC(=O)[C@H](Cc2c[nH]cn2)NC(=O)CNC(=O)CSC[C@@H](C(N)=O)NC(=O)[C@H](Cc2ccccc2)NC1=O [CTX-1653, Thioether-cyclo(Gly-His-D-Phe-Arg-Phe-Cys)] ({CH2CO}-GH[dF]RFC-NH2; thioether N-6)		>8	83%	5.91	0.83	< 5.00
N=C(N)NCCC[C@@H]1NC(=O)[C@@H](Cc2ccccc2)NC(=O)[C@H](CCCNC(N)=O)NC(=O)CNC(=O)CSC[C@@H](C(N)=O)NC(=O)[C@H](Cc2c[nH]c3ccccc23)NC1=O [CTX-1646, Thioether-cyclo(Gly-Cit-D-Phe-Arg-Trp-Cys)] ({CH2CO}-G[Cit][dF]RWC-NH2; thioether N-6)	70%	193	103%	7.89	>770	
CC(=O)N[C@H]1CSSC[C@@H](C(N)=O)NC(=O)[C@H](Cc2c[nH]c3ccccc23)NC(=O)[C@H](CCCNC(=N)N)NC(=O)[C@@H](Cc2ccccc2)NC(=O)[C@H](CCCNC(N)=O)NC(=O)CNC1=O [CTX-1630, cyclo(Cys-Gly-Cit-D-Phe-Arg-Trp-Cys)] (Ac-CG[Cit][dF]RWC-NH2; disulfide 1-7 (inferred))	35%	28	102%		1816	
CC(=O)N[C@@H](CCCNC(=N)N)C(=O)N[C@H]1CSSC[C@@H](C(N)=O)NC(=O)[C@@H](Cc2c[nH]c3ccccc23)NC(=O)[C@H](CCCNC(=N)N)NC(=O)[C@@H](Cc2ccccc2)NC(=O)[C@H](CCCNC(N)=O)NC(=O)C(C)(C)NC1=O [CTX-1290, Arg-cyclo(Cys-Aib-Cit-D-Phe-Arg-D-Trp-Cys)] (Ac-RC[Aib][Cit][dF]R[dW]C-NH2; disulfide 2-8)	20%	9.23	88%		10	5.99
CC(=O)N[C@@H](CCCNC(=N)N)C(=O)N[C@H]1CSSC[C@@H](C(N)=O)NC(=O)[C@@H](Cc2c[nH]c3ccccc23)NC(=O)[C@H](CCCNC(=N)N)NC(=O)[C@@H](Cc2ccccc2)NC(=O)[C@H](Cc2c[nH]cn2)NC(=O)C(C)(C)NC1=O [CTX-1296, Arg-cyclo(Cys-Aib-His-D-Phe-Arg-D-Trp-Cys)]	93%	22	99%		11	8.00
C[C@H]1NC(=O)CSC[C@@H](C(N)=O)NC(=O)[C@H](Cc2c[nH]c3ccccc23)NC(=O)[C@H](CCCNC(=N)N)NC(=O)[C@@H](Cc2ccccc2)NC(=O)[C@H](Cc2c[nH]cn2)NC1=O [CTX-1202, Thioether-cyclo((D-Ala-His-D-Phe-Arg-Trp-Cys)]	101%	76	104%		0.89	
CC(=O)N[C@@H](CCCNC(=N)N)C(=O)N[C@H]1CSSC[C@@H](C(N)=O)NC(=O)[C@@H](Cc2c[nH]c3ccccc23)NC(=O)[C@H](CCCNC(N)=O)NC(=O)[C@@H](Cc2ccccc2)NC(=O)[C@H](CCCNC(=N)N)NC(=O)[C@@H](C)NC1=O [CTX-1281, Arg-cyclo(Cys-D-Ala-Arg-D-Phe-Cit-D-Trp-Cys)] (Ac-RC[dA]R[dF][Cit][dW]C-NH2; disulfide 2-8 (inferred))	44%	0.29	92%		0.44	7.55
COc1ccc(C[C@H]2NC(=O)[C@H](CCCNC(=N)N)NC(=O)C(C)(C)NC(=O)[C@@H](NC(=O)[C@H](CCCNC(=N)N)NC(C)=O)CSSC[C@@H](C(N)=O)NC(=O)[C@@H](Cc3c[nH]c4ccccc34)NC(=O)[C@H](CCCNC(=N)N)NC2=O)cc1 [CTX-1297, Arg-cyclo(Cys-Aib-Arg-D-Tyr(4-OMe)-Arg-D-Trp-Cys)] (Ac-RC[Aib]R[dY](Me)R[dW]C-NH2; disulfide 2-8 (inferred))		>3,000	97%	8.48	0.52	< 5.00
